Assay results as given in patent publication US20170252289A1, “Hydroponic Tiliacora Triandra and Use Thereof” (Avon Products, Inc., priority 2016, published 2017).

What was measured:
[1] = system: Human 3D skin EFT400FT tissues; experiment: Stimulation of HA production in human 3D skin tissues (hyaluronic acid test kit on conditioned medium); format: cell-based; settings: 30 μl on apical surface, 8 hours per day for 3 days
Method: Method: Human 3D skin EFT400FT (MatTek, MA, USA) tissues were cultured following manufacture's instruction. Tiliacora triandra extract (extracted from hydroponically grown plant using 20/80 (v/v) water/ethanol) was added directly to the culture medium from a stock solution of 10% (w/w) extract in water in an amount adequate to achieve a final concentration of 0.2% (w/w) in the culture medium. The culture medium (EFT-400-MM) with and without Tiliacora triandra extract was collected 24 hours after dosing and fresh medium with and without Tiliacora triandra extract was added. Conditioned media from 3-day collection were pooled and assayed for the levels of HA.
HA production was measured using hyaluronic acid test kit (Corgenix, Inc. CO, USA). […] Add 100 μl Stopping Solution to stop the enzyme reaction and read the O.D. of each well at 450 nm. The amount of HA in the conditioned medium was calculated from this standard curve. […]
The same procedure of Example 4 was repeated using the skincare active glycolic acid, alone or in combination with hydroponic Tiliacora triandra extract, to investigate possible synergies between hydroponic Tiliacora triandra extract and glycolic acid. […] Glycolic acid was formulated into the base formula provided below in Table 3 in an amount calculated to provide a 0.5% (w/w) concentration of glycolic acid in the emulsion. […]

HAS2 gene = experiment: Hyaluronic acid synthase (HAS) gene expression by qPCR in treated 3D skin tissue, HAS2; format: cell-based, Human; settings: treated 3D skin EFT400FT tissue, 18S house keeping gene
Method: (§1) Total RNA was isolated from each treated 3D skin EFT400FT tissue using Trizol reagent (Thermo Fisher Scientific, MA). 1 μg of total RNA was used to generate cDNA using Supercript III first strand synthesis kit (Thermo Fisher Scientific, MA). Reverse transcriptase, Buffer, dNTP, Random primer, and RNase Inhibitor were diluted with the RNA according to the protocol from the manufacturer. 25 ng cDNA was used in 20 μl q-PCR reactions. Briefly, 10 μl of TaqMan Advanced Master Mix (Thermo Fisher Scientific, MA), 4 μl of H2O, 5 μl of cDNA, and 1 μl of either HAS primer (HAS2 Hs00193435_m1 and HAS3 Hs00193436_m1, Applied Biosystems) or 18S (Hs99999901_s1, Applied Biosystems) as a house keeping gene were mixed in a 96 well plate. The condition of qPCR was an incubation step of 95° C. for 20 seconds followed by 40 cycles of 95° C. for 3 seconds and 60° C. for 30 seconds. CT and RQ values were obtained from the software of applied Biosystems 7500 Fast Real Time PCR system. The results are shown below in Table 6, as percentage change of expression of hyaluronan synthase genes over control.

HAS3 gene = experiment: Hyaluronic acid synthase (HAS) gene expression by qPCR in treated 3D skin tissue, HAS3; format: cell-based, Human; settings: treated 3D skin EFT400FT tissue, 18S house keeping gene
Method: as §1

SMILES	% change in HA level over the control ([1]; Example 6, 5% (w/w) niacinamide emulsion) [%]	HAS2 gene % change of expression over control (HAS2 gene)	HAS3 gene % change of expression over control (HAS3 gene) [%]	% change in HA level over the control ([1]; Example 5, 0.5% (w/w) glycolic acid emulsion) [%]
NC(=O)c1cccnc1 [Niacinamide, niacinamide]	119.54	No effect	106	
O=C(O)CO [Glycolic acid, glycolic acid]		No effect	101	25.21
